Results on 2 molecules are retold here after article PMC10624628 (2023).

The test system of test [1] is SAMURI / 17-mer substrate RNA (RNA, ribozyme) GGUUGAAGGCAUGGCUCAGGGACUUCGGUCCGCUGCAGUCAGUAUGUCC/ACAUACUGAGCCUUCAA
As to the kind of experiment: Michaelis-Menten fit of kobs, alkylation of Cy5-labelled substrate, denaturing PAGE. As to conditions: 120 mM KCl, 5 mM NaCl, 10 mM MgCl2; 50 mM HEPES, pH 7.5, 37 °C; apparent; 32.6 ± 2.2 µM at 0.5 mM Mg2+; covalent transfer to substrate.

Test [2] has the same test system. Nature of the test: inhibition of SAMURI trans-propargylation, PAGE. To be noted: 120 mM KCl, 5 mM NaCl, 10 mM MgCl2; pH 7.5, 37 °C, 1 h; no competition with 10 µM ProSeDMA up to 1 mM SAM; methylates substrate at 3 mM.

For `C#CC[Se+](CCC(N)C(N)=O)C[C@H]1O[C@@H](n2cnc3c(N)nc(N)nc32)[C@H](O)[C@@H]1O` (some centres unmarked), in test [1], the “Km,app” value came out at 8.9 ± 1.9 µM.

For the molecule `C[S+](CC[C@H](N)C(=O)O)C[C@H]1O[C@@H](n2cnc3c(N)ncnc32)[C@H](O)[C@@H]1O` (some centres unmarked), the binding entry in test [2] was “weak”.
